Data published in US20110275138A1, “KETOSE 3-EPIMERASE, ITS PREPARATION AND USES” (KABUSHIKI KAISHA HAYASHIBARA SEIBUTSU KAGAKU KENKYUJO, priority 2005, published 2011).
Like-named read-outs stand apart in the source and are kept apart here. Marks after values point to notes of the source that are not given here. Blank lines part the entries; values can stand above or below the molecule they belong to.

Assays:
ketose 3-epimerase [1] = assay: Substrate specificity of ketose 3-epimerase (epimer content by HPLC); assay type: biochemical, Rhizobium leguminosarum ATCC14480; settings: for Epimer content in the reaction products: 1% (w/v) substrate, pH 8.0, 1 mM MnCl2, 45° C., 17 hours
Description: By using the purified preparation of the ketose 3-epimerase, obtained by the method in Experiment 2, the substrate specificity of the enzyme was investigated using various D- or L-ketohexoses and D- or L-ketopentoses as substrates. Substrate solutions were prepared by dissolving D-fructose, D-psicose, D-tagatose, D-sorbose, D-xylulose, D-ribulose, L-fructose, L-psicose, L-tagatose, L-sorbose, L-xylulose, or L-ribulose into 20 mM Tris-HCl buffer (pH 8.0) containing 1 mM MnCl2 to give a final concentration of 1% (w/v), respectively. Then, each substrate solution was further admixed with 2 units/g-substrate or 20 units/g-substrate, on a dry solid basis, as D-psicose 3-epimerase activity of the purified preparation of the ketose 3-epimerase, obtained by the method in Experiment 2; and followed by the enzyme reaction at 45° C. for 17 hours. After stopping the reaction by keeping the reaction mixture at 100° C. for 10 min, the content of epimer formed from each substrate was measured using high performance liquid chromatography (hereinafter, abbreviated as “HPLC”). HPLC was carried out under the following conditions: • Column: MCI GEL CK08EC, commercialized by Mitsubishi Chemical Corporation, Tokyo, Japan; • Eluent: water; • Column temperature: 75° C. • Flow rate: 0.6 ml/min • Detection: RID-10A, a differential refractometer commercialized by Shimadzu Corporation, Kyoto, Japan;

ketose 3-epimerase [2] = assay type: biochemical, Rhizobium leguminosarum ATCC14480
[3] = Ketose 3-epimerase activity assay: D-fructose formed from D-psicose; assay type: biochemical; settings: D-psicose 3-epimerase activity, per purification step
Description: The activity of the ketose 3 -epimerase of the present invention can be assayed by measuring the amount of D-fructose formed from D-psicose as a substrate. Specifically, the activity of the enzyme can be assayed as follows: A substrate solution is prepared by dissolving D-psicose in 20 mM Tris-HCl buffer (pH 8.0) containing 1 mM MnCl2 to give a final concentration of 1% (w/v). Two milliliters of the substrate solution is admixed with 0.5 ml of the enzyme solution, and the mixture solution is incubated at 45° C. for 30 min. The reaction is stopped by keeping the reaction mixture in boiling water bath for 5 min. Successively, 1 ml of the reaction mixture is admixed with 1 ml of deionized water and 1 ml NADP solution, prepared by dissolving 2.37 g of NADP, 5.93 g of ATP, and 1 g of MgSO4 7H2O into 500 ml of 0.3 M triethanolamine-HCl buffer (pH 7.6). […] After keeping the resulting mixture at room temperature for 30 min, absorbance of the mixture at 340 nm was measured for determining the amount of D-fructose formed by the reaction. […]
The following experiments explain the present invention in detail. In the following experiments, D-psicose 3-epimerase activity, converting D-psicose into D-fructose, was assayed according to the aforementioned assay method and expressed as ketose 3-epimerase activity.

[4] = Optimum pH and optimum temperature of the enzyme; assay type: biochemical; settings: for Optimum temperature: pH 8.0, 30 min
Description: The activity of the ketose 3 -epimerase of the present invention can be assayed by measuring the amount of D-fructose formed from D-psicose as a substrate. Specifically, the activity of the enzyme can be assayed as follows: A substrate solution is prepared by dissolving D-psicose in 20 mM Tris-HCl buffer (pH 8.0) containing 1 mM MnCl2 to give a final concentration of 1% (w/v). Two milliliters of the substrate solution is admixed with 0.5 ml of the enzyme solution, and the mixture solution is incubated at 45° C. for 30 min. The reaction is stopped by keeping the reaction mixture in boiling water bath for 5 min. Successively, 1 ml of the reaction mixture is admixed with 1 ml of deionized water and 1 ml NADP solution, prepared by dissolving 2.37 g of NADP, 5.93 g of ATP, and 1 g of MgSO4 7H2O into 500 ml of 0.3 M triethanolamine-HCl buffer (pH 7.6). While, Enzyme solution A and B, described below, were respectively diluted 4-fold with 0.3 M triethanolamine-HCl buffer (pH 7.6) and then both solutions were mixed in equal amount to make into a mixed enzyme solution. Then, 40 ml of the mixed enzyme solution was admixed with the mixture prepared above. After keeping the resulting mixture at room temperature for 30 min, absorbance of the mixture at 340 nm was measured for determining the amount of D-fructose formed by the reaction. […]
According to the methods described in Experiment 2, the soluble fraction of cell homogenate, obtained by the method in Experiment 5, was partially purified by salting out, dialysis and successive column chromatographies on “SEPABEADS” gel and “BUTYL-TOYOPEARL” gel, and the partially purified enzyme preparation was analyzed according to the methods in Experiment 3. […]

[5] = 1 mM metal salt, substrate solution without 1 mM MnCl2, None = 100
[6] = 1 mM, in comparison with the case without metal ions
[7] = 1 mM metal salt, substrate solution without 1 mM MnCl2, None = 100, D-fructose determined by HPLC

Molecule: O=C(CO)[C@@H](O)[C@H](O)[C@H](O)CO [D-Fructose, D-fructose]
Action of the ketose 3-epimerase on the substrate (in words) (ketose 3-epimerase [1]): most efficiently catalyzes | Epimer content in the reaction products (ketose 3-epimerase [1]; enzyme 2 units/g-substrate): 17.7% | Epimer content in the reaction products (ketose 3-epimerase [1]; enzyme 2 units/g-substrate, listed as D-fructose): about 18% | Epimer content in the reaction products (ketose 3-epimerase [1]; enzyme 20 units/g-substrate): 25.8%

Molecule: [Cl][Ni][Cl] [NiCl2]
Relative activity (ketose 3-epimerase [2]; [5]): 64% | Effect on the ketose 3-epimerase activity (in words) (ketose 3-epimerase [2]; [6]): slightly inhibited

Action of the ketose 3-epimerase on the substrate (in words) (ketose 3-epimerase [1]): efficiently catalyzed | Epimer content in the reaction products (ketose 3-epimerase [1]; enzyme 2 units/g-substrate): 17.1% | Epimer content in the reaction products (ketose 3-epimerase [1]; enzyme 20 units/g-substrate): 43.4%
Molecule: O=C(CO)[C@H](O)[C@H](O)CO [D-Ribulose, D-ribulose]

Molecule: [Cl-].[Cl-].[Zn+2] [ZnCl2]
Relative activity (ketose 3-epimerase [2]; [5]): 13% | Effect on the ketose 3-epimerase activity (in words) (ketose 3-epimerase [2]; [6]): remarkable inhibited

Molecule: [Cl][Fe][Cl] [FeCl2]
Relative activity (ketose 3-epimerase [2]; [7]): 67%

Molecule: [Cl][Pb][Cl] [PbCl2]
Relative activity (ketose 3-epimerase [2]; [5]): 69% | Effect on the ketose 3-epimerase activity (in words) (ketose 3-epimerase [2]; [6]): slightly inhibited

Molecule: [Cl][Hg][Cl] [HgCl2, mercury chloride]
Relative activity (ketose 3-epimerase [2]; [7]): 35% | Effect on the ketose 3-epimerase activity (in words) (ketose 3-epimerase [2]; [6]): remarkable inhibited

Molecule: [Cl-].[Cl-].[Co+2] [CoCl2]
Effect on the ketose 3-epimerase activity (in words) (ketose 3-epimerase [2]): not activated | Relative activity (ketose 3-epimerase [2]): 101%

Molecule: O=C(O)CN(CCN(CC(=O)O)CC(=O)O)CC(=O)O [EDTA]
Effect on the ketose 3-epimerase activity (in words) (ketose 3-epimerase [2]): not inhibited | Relative activity (ketose 3-epimerase [2]): 97%

Molecule: O=C(CO)[C@H](O)[C@H](O)[C@H](O)CO [D-Psicose, D-psicose]
Action of the ketose 3-epimerase on the substrate (in words) (ketose 3-epimerase [1]): most efficiently catalyzes | Epimer content in the reaction products (ketose 3-epimerase [1]; enzyme 2 units/g-substrate): 39.4% | Epimer content in the reaction products (ketose 3-epimerase [1]; enzyme 2 units/g-substrate, listed as D-psicose): about 39% | Epimer content in the reaction products (ketose 3-epimerase [1]; enzyme 20 units/g-substrate): 74.1%

Action of the ketose 3-epimerase on the substrate (in words) (ketose 3-epimerase [1]): efficiently catalyzed | Epimer content in the reaction products (ketose 3-epimerase [1]; enzyme 2 units/g-substrate): 1.6% | Epimer content in the reaction products (ketose 3-epimerase [1]; enzyme 20 units/g-substrate): 10.3%
Molecule: O=C(CO)[C@H](O)[C@@H](O)CO [L-Xylulose, L-xylulose]

Molecule: O=C(CO)[C@H](O)[C@@H](O)[C@@H](O)CO [L-Fructose, L-fructose]
Epimer content in the reaction products (ketose 3-epimerase [1]; enzyme 2 units/g-substrate): 0% | Epimer content in the reaction products (ketose 3-epimerase [1]; enzyme 20 units/g-substrate): 1.4%

Molecule: [Cl][Sn][Cl] [SnCl2]
Relative activity (ketose 3-epimerase [2]; [5]): 114% | Effect on the ketose 3-epimerase activity (in words) (ketose 3-epimerase [2]; [6]): slightly activated

Molecule: [Cl-].[Cl-].[Mg+2] [MgCl2]
Relative activity (ketose 3-epimerase [2]; [5]): 141% | Relative activity (ketose 3-epimerase [2]; 1 mM metal salt, substrate solution without 1 mM MnCl2, None = 100, listed as Mg^2+): about 140% | Effect on the ketose 3-epimerase activity (in words) (ketose 3-epimerase [2]; [6]): Activated

Molecule: O=C(CO)[C@@H](O)[C@@H](O)[C@@H](O)CO [L-Psicose, L-psicose]
Epimer content in the reaction products (ketose 3-epimerase [1]; enzyme 2 units/g-substrate): 1.6% | Epimer content in the reaction products (ketose 3-epimerase [1]; enzyme 20 units/g-substrate): 11.3%

Molecule: [Cl][Cu][Cl] [CuCl2]
Relative activity (ketose 3-epimerase [2]; [5]): 60% | Effect on the ketose 3-epimerase activity (in words) (ketose 3-epimerase [2]; [6]): slightly inhibited

Molecule: [Ca+2].[Cl-].[Cl-] [CaCl2]
Relative activity (ketose 3-epimerase [2]; [5]): 89%

Action of the ketose 3-epimerase on the substrate (in words) (ketose 3-epimerase [1]): slightly catalyzed | Epimer content in the reaction products (ketose 3-epimerase [1]; enzyme 2 units/g-substrate): 0% | Epimer content in the reaction products (ketose 3-epimerase [1]; enzyme 20 units/g-substrate): 0.1%
Molecule: O=C(CO)[C@H](O)[C@@H](O)[C@H](O)CO [D-Sorbose, D-sorbose]

Action of the ketose 3-epimerase on the substrate (in words) (ketose 3-epimerase [1]): efficiently catalyzed | Epimer content in the reaction products (ketose 3-epimerase [1]; enzyme 2 units/g-substrate): 19.2% | Epimer content in the reaction products (ketose 3-epimerase [1]; enzyme 20 units/g-substrate): 58.4%
Molecule: O=C(CO)[C@@H](O)[C@@H](O)CO [L-Ribulose, L-ribulose]

Action of the ketose 3-epimerase on the substrate (in words) (ketose 3-epimerase [1]): efficiently catalyzed | Epimer content in the reaction products (ketose 3-epimerase [1]; enzyme 2 units/g-substrate): 2.3% | Epimer content in the reaction products (ketose 3-epimerase [1]; enzyme 20 units/g-substrate): 19.6%
Molecule: O=C(CO)[C@@H](O)[C@H](O)CO [D-Xylulose, D-xylulose]

Molecule: O=C(CO)[C@@H](O)[C@H](O)[C@@H](O)CO [L-Sorbose, L-sorbose]
Epimer content in the reaction products (ketose 3-epimerase [1]; enzyme 2 units/g-substrate): 0% | Epimer content in the reaction products (ketose 3-epimerase [1]; enzyme 20 units/g-substrate): 6.2%

Molecule: [Cl][Al]([Cl])[Cl] [AlCl3]
Relative activity (ketose 3-epimerase [2]; [5]): 86%

Molecule: O=C(CO)[C@@H](O)[C@@H](O)[C@H](O)CO [D-Tagatose, D-tagatose]
Action of the ketose 3-epimerase on the substrate (in words) (ketose 3-epimerase [1]): slightly catalyzed | Epimer content in the reaction products (ketose 3-epimerase [1]; enzyme 2 units/g-substrate): 0.6% | Epimer content in the reaction products (ketose 3-epimerase [1]; enzyme 20 units/g-substrate): 5.3%

Molecule: [Ba+2].[Cl-].[Cl-] [BaCl2]
Relative activity (ketose 3-epimerase [2]; [5]): 96%

Molecule: [Cl][Fe]([Cl])[Cl] [FeCl3]
Relative activity (ketose 3-epimerase [2]; [7]): 64%

Molecule: O=C(CO)[C@H](O)[C@H](O)[C@@H](O)CO [L-Tagatose, L-tagatose]
Epimer content in the reaction products (ketose 3-epimerase [1]; enzyme 2 units/g-substrate): 3.2% | Epimer content in the reaction products (ketose 3-epimerase [1]; enzyme 20 units/g-substrate): 26.7%

Molecule: [Cl-].[Cl-].[Sr+2] [SrCl2]
Relative activity (ketose 3-epimerase [2]; [5]): 103% | Effect on the ketose 3-epimerase activity (in words) (ketose 3-epimerase [2]; [6]): not activated

Molecule: [Cl][Mn][Cl] [MnCl2]
Relative activity (ketose 3-epimerase [2]; [5]): 283% | Relative activity (ketose 3-epimerase [2]; 1 mM metal salt, substrate solution without 1 mM MnCl2, None = 100, listed as Mn^2+): about 280% | Effect on the ketose 3-epimerase activity (in words) (ketose 3-epimerase [2]; [6]): Activated

B1: ketose 3-epimerase: purified ketose 3-epimerase from Rhizobium leguminosarum ATCC14480, 282 amino acid residues represented by SEQ ID NO: 2 (protein, listed as Rhizobium leguminosarum)
chain: MEGFGVHTSMWTMNWDRAGAEKAIAGAVHYKMDFIEIALLNAPAVDAKHTRALLEKNKLRAVCSLGLPEHAWASVRPDAAIEHLKVAIEKTAEMNAEALSGVIFGGIGERTGVPPTQGEYDNIAKVLDVAAKHARKHGIQLGVEAVNRYENHLINSAQQAVDMVERVGADNIFVHLDTYHMNIEEKGAANGILIARDHLKYIHLSESDRGTPGYGNIPWDAIYAALAAIGFKGGLAMESFINMPPEVAYGLAVWRPVARDMEEVMDKGLPFLRNKAEQYGLI
Specific activity of ketohexose 3-epimerase [3]: 41.6 units/mg-protein | Optimum pH ([4]; 45° C., 30 min, in the presence of 1 mM Mn2+ ion): 9.0-9.5* | Optimum temperature ([4]; in the absence of 1 mM Mn2+ ion): 50 °C | Optimum temperature ([4]; in the presence of 1 mM Mn2+ ion): (65° C.)*
